Data taken from PubChem BioAssay AID256 (DTP/NCI, 2004).
Values joined by “and” are separate entries in the source; they are usually repeats but may differ in a detail not shown here. Identical values can stand only once. Inconclusive results and toxic doses are left out.

Test system: CD2F1 mice, L1210 leukemia ip, survival T/C
Test: NCI In Vivo Anticancer Drug Screen. Data for tumor model L1210 Leukemia (intraperitoneal) in CD2F1 (CDF1) mice
Settings: higher = longer survival
Summary of the method: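 Vehicle-treated tumor-bearing mice served as controls (C) for compound-treated mice (T). Reported figure is T divided by C.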

[1] = endpoint: mean survival time, dose: 12.5 mg/kg/injection, schedule: Q01DX009 (ip), vehicle: water
[2] = endpoint: mean survival time, dose: 25.0 mg/kg/injection, schedule: Q01DX009 (ip), vehicle: water
[3] = endpoint: mean survival time, dose: 50.0 mg/kg/injection, schedule: Q01DX009 (ip), vehicle: water
[4] = endpoint: mean survival time, dose: 100.0 mg/kg/injection, schedule: Q01DX009 (ip), vehicle: water
[5] = endpoint: mean survival time, dose: 200.0 mg/kg/injection, schedule: Q01DX009 (ip), vehicle: water
[6] = endpoint: mean survival time, dose: 12.5 mg/kg/injection, schedule: Q01DX009 (ip), vehicle: saline with Tween-80
[7] = endpoint: mean survival time, dose: 25.0 mg/kg/injection, schedule: Q01DX009 (ip), vehicle: saline with Tween-80
[8] = endpoint: mean survival time, dose: 50.0 mg/kg/injection, schedule: Q01DX009 (ip), vehicle: saline with Tween-80
[9] = endpoint: mean survival time, dose: 100.0 mg/kg/injection, schedule: Q01DX009 (ip), vehicle: saline with Tween-80
[10] = endpoint: mean survival time, dose: 200.0 mg/kg/injection, schedule: Q01DX009 (ip), vehicle: saline with Tween-80
[11] = endpoint: mean survival time, dose: 100.0 mg/kg/injection, schedule: Q04DX003 (ip), vehicle: saline with Tween-80
[12] = endpoint: mean survival time, dose: 200.0 mg/kg/injection, schedule: Q04DX003 (ip), vehicle: saline with Tween-80
[13] = endpoint: mean survival time, dose: 400.0 mg/kg/injection, schedule: Q04DX003 (ip), vehicle: saline with Tween-80
[14] = endpoint: mean survival time, dose: 100.0 mg/kg/injection, schedule: Q01DX001 (ip), vehicle: saline
[15] = endpoint: mean survival time, dose: 200.0 mg/kg/injection, schedule: Q01DX001 (ip), vehicle: saline
[16] = endpoint: mean survival time, dose: 400.0 mg/kg/injection, schedule: Q01DX001 (ip), vehicle: saline

SMILES: COC1=CC23CCCN2CCc2cc4c(cc2C3C1O)OCO4 (stereo not drawn)
- T/C [1]: 97 % of control
- T/C [2]: 101 % of control
- T/C [3]: 100 % of control
- T/C [4]: 95 % of control
- T/C [5]: 97 % of control

SMILES: O=C(O)CSc1nc(-c2ccccc2)c(-c2ccccc2)n1-c1ccccn1
- T/C [1]: 96 % of control and 97 % of control
- T/C [2]: 91 % of control and 100 % of control
- T/C [3]: 96 % of control and 102 % of control
- T/C [4]: 100 % of control and 102 % of control

SMILES: CCCCOC(=O)C=O
- T/C [6]: 101 % of control
- T/C [7]: 105 % of control
- T/C [8]: 99 % of control

SMILES: O=C(C[n+]1ccc2ccccc2c1)c1ccc2ccccc2c1
- T/C (endpoint: mean survival time, dose: 12.5 mg/kg/injection, schedule: Q04DX003 (ip), vehicle: saline with Tween-80): 92 % of control
- T/C (endpoint: mean survival time, dose: 25.0 mg/kg/injection, schedule: Q04DX003 (ip), vehicle: saline with Tween-80): 86 % of control

SMILES: CC(C)C(O)(c1ccccc1)C(O)(c1ccccc1)C(C)C (stereo not drawn)
- T/C (endpoint: mean survival time, dose: 50.0 mg/kg/injection, schedule: Q04DX002 (ip), vehicle: saline with Tween-80): 100 % of control
- T/C (endpoint: mean survival time, dose: 100.0 mg/kg/injection, schedule: Q04DX002 (ip), vehicle: saline with Tween-80): 96 % of control
- T/C (endpoint: mean survival time, dose: 200.0 mg/kg/injection, schedule: Q04DX002 (ip), vehicle: saline with Tween-80): 100 % of control

SMILES: O=C1N=C(Oc2ccccc2)SC1=O
- T/C [6]: 95 % of control and 104 % of control
- T/C [7]: 116 % of control and 101 % of control
- T/C [8]: 103 % of control and 106 % of control
- T/C [9]: 97 % of control and 101 % of control
- T/C [10]: 90 % of control

SMILES: CNC1CCC(C(=O)O)CC1 (stereo not drawn)
- T/C (endpoint: mean survival time, dose: 100.0 mg/kg/injection, schedule: Q01DX009 (ip), vehicle: saline): 107 % of control
- T/C (endpoint: mean survival time, dose: 200.0 mg/kg/injection, schedule: Q01DX009 (ip), vehicle: saline): 103 % of control
- T/C (endpoint: mean survival time, dose: 400.0 mg/kg/injection, schedule: Q01DX009 (ip), vehicle: saline): 96 % of control

SMILES: CC(=O)/C=C/Sc1n[nH]c(=O)[nH]c1=O
- T/C (endpoint: mean survival time, dose: 12.5 mg/kg/injection, schedule: Q01DX005 (ip), vehicle: distilled water + Tween-80): 106 % of control
- T/C (endpoint: mean survival time, dose: 25.0 mg/kg/injection, schedule: Q01DX005 (ip), vehicle: distilled water + Tween-80): 101 % of control
- T/C (endpoint: mean survival time, dose: 50.0 mg/kg/injection, schedule: Q01DX005 (ip), vehicle: distilled water + Tween-80): 107 % of control
- T/C (endpoint: mean survival time, dose: 100.0 mg/kg/injection, schedule: Q01DX005 (ip), vehicle: distilled water + Tween-80): 98 % of control

SMILES: CCCCCCC(=O)/C=C/c1cccc(Cl)c1
- T/C (endpoint: mean survival time, dose: 100.0 mg/kg/injection, schedule: Q04DX003 (ip), vehicle: Klucel (hydroxypropylcellulose) (HPC)): 104 % of control
- T/C (endpoint: mean survival time, dose: 200.0 mg/kg/injection, schedule: Q04DX003 (ip), vehicle: Klucel (hydroxypropylcellulose) (HPC)): 102 % of control
- T/C (endpoint: mean survival time, dose: 400.0 mg/kg/injection, schedule: Q04DX003 (ip), vehicle: Klucel (hydroxypropylcellulose) (HPC)): 91 % of control

SMILES: O=C(Nc1ccccc1)c1c(O)[nH]c(=S)[nH]c1=O
- T/C (endpoint: median survival time, dose: 6.2 mg/kg/injection, schedule: Q01DX005 (iv), vehicle: other): 124 % of control
- T/C (endpoint: median survival time, dose: 6.2 mg/kg/injection, schedule: Q01DX005 (iv), vehicle: saline with Tween-80): 124 % of control
- T/C (endpoint: median survival time, dose: 6.25 mg/kg/injection, schedule: Q01DX009 (ip), vehicle: saline with Tween-80): 116 % of control
- T/C (endpoint: median survival time, dose: 12.5 mg/kg/injection, schedule: Q01DX005 (iv), vehicle: other): 124 % of control
- T/C (endpoint: median survival time, dose: 12.5 mg/kg/injection, schedule: Q01DX005 (iv), vehicle: saline with Tween-80): 124 % of control
- T/C (endpoint: median survival time, dose: 20.0 mg/kg/injection, schedule: Q01DX009 (ip), vehicle: saline with Tween-80): 119 % of control
- T/C (endpoint: median survival time, dose: 25.0 mg/kg/injection, schedule: Q01DX005 (iv), vehicle: other): 158 % of control
- T/C (endpoint: median survival time, dose: 25.0 mg/kg/injection, schedule: Q01DX009 (ip), vehicle: other): 197 % of control
- T/C (endpoint: median survival time, dose: 25.0 mg/kg/injection, schedule: Q01DX009 (ip), vehicle: water): 124 % of control
- T/C (endpoint: median survival time, dose: 30.0 mg/kg/injection, schedule: Q01DX009 (ip), vehicle: saline with Tween-80): 162 % of control
- T/C (endpoint: median survival time, dose: 44.0 mg/kg/injection, schedule: Q01DX009 (ip), vehicle: saline with Tween-80): 157 % of control and 168 % of control
- T/C (endpoint: median survival time, dose: 50.0 mg/kg/injection, schedule: Q01DX009 (ip), vehicle: other): 114 % of control
- T/C (endpoint: median survival time, dose: 50.0 mg/kg/injection, schedule: Q01DX009 (ip), vehicle: water): 204 % of control
- T/C (endpoint: median survival time, dose: 67.0 mg/kg/injection, schedule: Q01DX009 (ip), vehicle: saline with Tween-80): 182 % of control and 192 % of control

SMILES: CCCCCCCCCCC(C(=O)OCC)P(=O)(OCC)OCC (stereo not drawn)
- T/C (endpoint: mean survival time, dose: 75.0 mg/kg/injection, schedule: Q01DX001 (ip), vehicle: saline): 98 % of control
- T/C (endpoint: mean survival time, dose: 150.0 mg/kg/injection, schedule: Q01DX001 (ip), vehicle: saline): 102 % of control
- T/C (endpoint: mean survival time, dose: 300.0 mg/kg/injection, schedule: Q01DX001 (ip), vehicle: saline): 96 % of control

SMILES: CC(=O)CC(=O)C(F)(F)F.CC(=O)CC(=O)C(F)(F)F.CC(=O)CC(=O)C(F)(F)F.[Sm]
- T/C [11]: 95 % of control
- T/C [12]: 100 % of control
- T/C [13]: 100 % of control

SMILES: O=C(O)CCc1cccnc1
- T/C [9]: 95 % of control
- T/C [10]: 104 % of control
- T/C (endpoint: mean survival time, dose: 400.0 mg/kg/injection, schedule: Q01DX009 (ip), vehicle: saline with Tween-80): 111 % of control

SMILES: CC(=O)CC(=O)OCc1ccccc1
- T/C [11]: 100 % of control
- T/C [12]: 95 % of control
- T/C [13]: 103 % of control

SMILES: CC(C)(O)C1OCC(C2CCC3(C)C4=CCC5C(C)(C)C(O)CCC5(C)C4CCC23C)CC1O (stereo not drawn)
- T/C (endpoint: mean survival time, dose: 2.5 mg/kg/injection, schedule: Q01DX009 (ip), vehicle: Klucel (hydroxypropylcellulose) (HPC)): 94 % of control
- T/C (endpoint: mean survival time, dose: 5.0 mg/kg/injection, schedule: Q01DX009 (ip), vehicle: Klucel (hydroxypropylcellulose) (HPC)): 103 % of control
- T/C (endpoint: mean survival time, dose: 10.0 mg/kg/injection, schedule: Q01DX009 (ip), vehicle: Klucel (hydroxypropylcellulose) (HPC)): 88 % of control

SMILES: CCOC(=O)c1ccc(NS(=O)c2ccccc2)cc1 (stereo not drawn)
- T/C [14]: 95 % of control
- T/C (endpoint: mean survival time, dose: 100.0 mg/kg/injection, schedule: Q04DX003 (ip), vehicle: saline): 109 % of control
- T/C [15]: 95 % of control
- T/C (endpoint: mean survival time, dose: 200.0 mg/kg/injection, schedule: Q04DX003 (ip), vehicle: saline): 108 % of control
- T/C [16]: 94 % of control
- T/C (endpoint: mean survival time, dose: 400.0 mg/kg/injection, schedule: Q04DX003 (ip), vehicle: saline): 103 % of control

SMILES: CC1(C)CCOC1=O
- T/C [14]: 105 % of control
- T/C [15]: 103 % of control
- T/C [16]: 103 % of control

SMILES: CC(=O)NCCSSCCCCS(=O)O
- T/C (endpoint: median survival time, dose: 25.0 mg/kg/injection, schedule: Q01DX009 (ip), vehicle: suspension in saline): 93 % of control
- T/C (endpoint: median survival time, dose: 50.0 mg/kg/injection, schedule: Q01DX009 (ip), vehicle: suspension in saline): 100 % of control
- T/C (endpoint: median survival time, dose: 100.0 mg/kg/injection, schedule: Q01DX009 (ip), vehicle: suspension in saline): 96 % of control
- T/C (endpoint: median survival time, dose: 200.0 mg/kg/injection, schedule: Q01DX009 (ip), vehicle: suspension in saline): 100 % of control
- T/C (endpoint: median survival time, dose: 400.0 mg/kg/injection, schedule: Q01DX009 (ip), vehicle: suspension in saline): 114 % of control

SMILES: Cc1cccnc1Br
- T/C [1]: 95 % of control
- T/C [2]: 103 % of control
- T/C [3]: 95 % of control
- T/C [4]: 95 % of control
- T/C [5]: 88 % of control

SMILES: O/N=C1\CCCC\C1=N/O.O/N=C1\CCCC\C1=N/O.[Pt]
- T/C (endpoint: mean survival time, dose: 3.13 mg/kg/injection, schedule: Q04DX003 (ip), vehicle: dextrose): 98 % of control
- T/C (endpoint: mean survival time, dose: 6.25 mg/kg/injection, schedule: Q04DX003 (ip), vehicle: dextrose): 98 % of control
- T/C (endpoint: mean survival time, dose: 12.5 mg/kg/injection, schedule: Q04DX003 (ip), vehicle: dextrose): 101 % of control
- T/C (endpoint: mean survival time, dose: 25.0 mg/kg/injection, schedule: Q04DX003 (ip), vehicle: dextrose): 98 % of control
- T/C (endpoint: mean survival time, dose: 50.0 mg/kg/injection, schedule: Q04DX003 (ip), vehicle: dextrose): 97 % of control and 101 % of control
- T/C (endpoint: mean survival time, dose: 100.0 mg/kg/injection, schedule: Q04DX003 (ip), vehicle: dextrose): 93 % of control and 101 % of control
- T/C (endpoint: mean survival time, dose: 200.0 mg/kg/injection, schedule: Q04DX003 (ip), vehicle: dextrose): 96 % of control and 101 % of control
- T/C (endpoint: mean survival time, dose: 400.0 mg/kg/injection, schedule: Q04DX003 (ip), vehicle: dextrose): 101 % of control
